Source: patent US20160030364A1, “Therapeutic Compositions and Uses Thereof” (MANUKA HEALTH NEW ZEALAND LIMITED, priority 2013, published 2016)
Values joined by “and” are separate entries in the source; they are usually repeats but may differ in a detail not shown here. Equal values may be shown once.

Legend:
Type in all cases: cell-based
[1] = system: human colorectal adenocarcinoma cells (DLD-1); assay: MTT anti-proliferative assay, DLD-1 (Examples 3-12); conditions: 200 μg/ml; for % inhibition / % stim. / Mean OD (570 nm): 48 hours
Procedure: (§1) 5-phenylpenta-2,4-dienoic acid was assessed for its ability to modulate the viability and proliferation of human colorectal adenocarcinoma cells (DLD-1); human colon cancer cell line (HCT-116); human gastric carcinoma cell line (NCI-N87); and human oesophageal squamous cell carcinoma cell line (KYSE-30) as assessed by the MTT assay. The positive control, 5-fluorouracil (5-FU) was included at three concentrations; in addition to an unsupplemented cell control as a negative control in the study. The 5-phenylpenta-2,4-dienoic acid was a genuine standard with chemical structure confirmed by NMR and MS.
(§2) The four human gastrointestinal carcinoma cell lines were revived from cryostorage and cultured in the presence of the test and reference samples. An MTT assay was then performed on the cultures to determine the effect of the samples on the cell viability and proliferation.
(§3) The test sample 5-phenylpenta-2,4-dienoic acid, and all other test samples in Examples 4-12 (except tectochrysln) were Initially dissolved in pure ethanol to a concentration of around 13.35 mg/ml. Tectochrysin was initially dissolved in triethylene glycol mono-methyl ether to the same concentration. Working solutions were then prepared from the stock solutions by dilution to 15% ethanol/Hanks Balanced Salt Solution (ETOH)/HBSS to a concentration of 2 mg/mL solids. In the assay the final concentration of the samples was 200 μg/ml with a final EtOH concentration of 1.5%. Final concentrations of test compounds and propolis prepared as above are as noted in Example 3.
(§4) • 1. Human colorectal adenocarcinoma cells (ATCC CCI-221, DLD-1)(ATCC, Bethesda, Md., USA) • 2. Human gastric carcinoma cells (ATCC CRL-5822, NCI-N87)(ATCC, Bethesda, Md., USA) • 3. Human oesophageal squamous cell carcinoma (ECACC, KYSE-30)(Sigma Aldrich, Auckland, NZ) • 4. Human colon carcinoma cells (ECACC HCT-116)(Sigma Aldrich, Auckland, NZ) • 5. Penicillin-streptomycin solution: 10000 units/ml penicillin, 10 mg/ml streptomycin in 0.9% NaCl (Sigma Cat #P-0781). Stored at −20° C. • 6. For DLD-1 cells: DMEM culture medium (Invitrogen Cat #12100-046). Stored at 4° C. • 7. For NCI-N87 cells: RPMI-1640 medium modified to contain 2 mM L-glutamine, 10 mM HEPES, 1 mM sodium pyruvate, 4500 mg/L glucose, and 1500 mg/L sodium bicarbonate (Sigma R6504). Stored at 4° C. • 8. For KYSE-410 cells: RPMI-1640 medium modified to contain 2 mM L-glutamine (Sigma R6504). Stored at 4° C. • 9. For HCT-116 cells: McCoy's 5A medium modified to contain 2 mM L-glutamine (Sigma M48792). Stored at 4° C. • 10. Trypsin-EDTA solution: 0.25% Trypsin/EDTA, Invitrogen Cat#15400054 (×10 in stock). • 11. Phosphate buffered saline (PBS) (Prepared by TBL). • 12. Hanks Balanced Salt Solution (HBSS). (GIBCO Cat No. 14185-052). Stored at 4° C. • 13. Foetal Bovine Serum (GIBCO Cat #10091-148). Stored at −20° C. • 14. MTT Reagent: 100 mg/vial, (SIGMA Cat. No. M-2128) dissolved in PBS at 10 mg/ml and stored at −20° C. 5 mg/ml MTT solution will be prepared in PBS and stored at 4° C. as working solution. • 15. MTT lysis buffer: 10% sodium dodecyl sulphate (SDS)/45% Dimethyl Formamide (20 g SDS will be dissolved in 100 ml of double-distilled water (DDW), and 90 ml of Dimethyl Formamide will be added to the SDS solution). The pH will be adjusted to 4.7 by glacial acetic acid, and DDW added up to a final volume of 200 ml. • 16. 5-Fluorouracil (5-FU), (Sigma Cat. No. F-6627). Three working solutions will be prepared at 19.5 μg/ml. 6.5 μg/ml and 1.95 μg/ml dissolved in 15% Ethanol/HBSS. Final concentrations will be 1.95 μg/ml (15 μM), 0.65 μg/ml (5 μM) and 0.195 μg/ml (1.5 μM).
(§5) The medium for the propagation of the each of the cells lines is given above. Each medium was prepared following the ATCC/ECACC instructions and supplemented with penicillin-streptomycin solution (10 ml per litre). FBS (at 10%) was added just before use.
• 1. […]

[2] = system: human colon cancer cell line (HCT-116); assay: MTT anti-proliferative assay, HCT-116 (Examples 3-12); conditions: 200 μg/ml; for % inhibition / % stim. / Mean OD (570 nm): 48 hours
Procedure: as §1, §2, §3, §4, §5
• 1. […]

[3] = system: human gastric carcinoma cell line (NCI-N87); assay: MTT anti-proliferative assay, NCI-N87 (Examples 3-12); conditions: 200 μg/ml; for % inhibition / % stim. / Mean OD (570 nm): 48 hours
Procedure: as §1, §2, §3, §4, §5
• 1. […]

[4] = system: human oesophageal squamous cell carcinoma cell line (KYSE-30); assay: MTT anti-proliferative assay, KYSE-30 (Examples 3-13); conditions: Examples 3-12, 200 μg/ml, 48 hours
Procedure: as §1, §2, §3, §4, §5
• 1. […]

[5] = system: human oesophageal squamous cell carcinoma cell line (KYSE-30); assay: as above
[6] = listed as 1,1-dimethylallylcaffeic acid

Compound | % inhibition [1] | % stim. [1] [%] | Mean OD (570 nm) [1] | % inhibition [2] | % stim. [2] [%] | Mean OD (570 nm) [2] | % inhibition [3] | % stim. [3] [%] | Mean OD (570 nm) [3] | % inhibition [4] | % stim. [4] [%] | Mean OD (570 nm) [4] | further results
1,1-dimethylallyl caffeic acid | 93.24% | 0 | 0.0279 | 96.73% | 0 | 0.0166 | 86.74% | 0 | 0.0586 | 97.8% | 0 | 0.0133 | % inhibition [1, 6]: 93.2%; % inhibition [2, 6]: 86.7%; % inhibition [3, 6]: 86.7%; % inhibition ([5]; Example 13, 100 μg/ml): 88.63%; Mean OD (570 nm) ([5]; Example 13, 100 μg/ml): 0.0381
C=C(C)CCOC(=O)C=Cc1ccc(O)c(O)c1 [3-methyl-3-butenyl caffeate, 3-methyl-3-butenyl caffeic acid] | 91.6% and 91.63% | 0 | 0.0345 | 96.0% and 96.03% | 0 | 0.0202 | 84.5% and 84.54% | 0 | 0.0683 | 96.3% and 96.31% | 0 | 0.0222 | % inhibition ([5]; Example 13, 10 μg/ml): 39.3% and 39.33%; Mean OD (570 nm) ([5]; Example 13, 10 μg/ml): 0.2034
COc1cc(/C=C/C(=O)OCc2ccccc2)ccc1O [benzyl ferulate] | 86.02% | 0 | 0.0576 | 95.92% | 0 | 0.0207 | 86.96% | 0 | 0.0576 | 98.62% | 0 | 0.0083 | inhibition at 200 µg/mL ([1]; Homo sapiens, DLD-1, 48 h): 86%; inhibition at 200 µg/mL ([2]; Homo sapiens, HCT-116, 48 h): 95.9%; inhibition at 200 µg/mL ([3]; Homo sapiens, NCI-N87, 48 h): 87%; inhibition at 200 µg/mL ([4]; Homo sapiens, KYSE-30, 48 h): 98.6%; Mean OD (570 nm) ([5]; Example 13, 50 μg/ml): 0.0398; inhibition at 50 µg/mL ([5]; Homo sapiens, KYSE-30, Example 13, 50 μg/ml): 88.1%
